Laboratory results reported in the NIST ThermoML archive (doi:10.1016/j.jct.2008.09.018).

Test: xn = mol fraction of the nth substance listed
Details: 101 kPa, Liquid; for speed of sound: Pulse-echo method; for viscosity: Capillary tube (Ostwald / Ubbelohde) method; for mass density: Vibrating tube method

CCCCCCCCCO [nonan-1-ol] + OCCO
Details | mass density, 298.15 K [kg/m3] | mass density, 303.15 K [kg/m3] | speed of sound, 293.15 K [m/s] | speed of sound, 298.15 K [m/s] | speed of sound, 303.15 K [m/s] | viscosity, 298.15 K [mPa·s] | viscosity, 303.15 K [mPa·s]
x2 = 0 | 824.48 | 821.05 | 1381.6 | 1364.4 | 1347.4 | 9.494 | 7.994
x2 = 0.1002 | 833.41 | 830.02 | 1383.9 | 1366.8 | 1350 | 9.581 | 8.014
x2 = 0.1979 | 843.96 | 840.61 | 1387.2 | 1370.3 | 1353.6 | 10.01 | 8.359
x2 = 0.2964 | 856.32 | 852.92 | 1391.9 | 1375.2 | 1358.8 | 10.67 | 8.897
x2 = 0.3641 | 866.44 | 863 | 1396.2 | 1379.8 | 1363.5 | 11.26 | 9.37
x2 = 0.4533 | 881.71 | 878.3 | 1403.7 | 1387.6 | 1371.5 | 12.22 | 10.14
x2 = 0.5432 | 900.44 | – | 1414.2 | 1398.4 | 1382.7 | 13.41 | 11.09
x2 = 0.6441 | 926.38 | – | 1431.5 | 1416.2 | 1400.8 | 15.09 | 12.4
x2 = 0.701 | 944.22 | – | – | – | – | – | –
x2 = 0.7517 | 963.14 | – | 1460.2 | 1445.4 | 1430.7 | 17.32 | 14.12
x2 = 0.9308 | 1055.33 | – | 1571.1 | 1558.5 | 1545.7 | 19.28 | 15.47
